Results on 2 substances are retold here after US9862754B2, “Peptide analogs for treating diseases and disorders” (KeyBioscience AG, priority 2011, dated 2018).

What all share (assay type): in vivo, rat
Assay [1] in a line: Example 1: fasting glycaemia in DIO rats. The conditions noted are these: following 2 and 4 weeks of treatment, 1 mg/kg p.o. b.i.d. On the procedure:
(§1) The study was performed in male Levin-DIO rats (diet-sensitive) and Levin-DR (diet-resistant) (TacLevin: CD (SD) DIO) (Taconic, Hudson, N.Y., U.S.A.) obtained at age 6-7 weeks. On arrival, DIO rats were given high fat diet (60 kcal %) (#D12495, Research Diets Inc., New Brunswick, N.J., USA) and kept on the same diet for 16 weeks prior to and during the experiment. DR rats were given low-fat diet and served as control group. Animals were pair-wise housed throughout the study. Rats were handled and pre-dosed once daily with MilliQ H2O for 2-3 weeks prior to experimental start to reduce stress-induced hyperglycaemia. Baseline parameters were recorded in an fasting (6 h) condition. Rats were randomized into treatment groups based on fasting body weight (BW) and fasting plasma glucose (FPG). Body weight, food and water intake were recorded once weekly during the study period.
Blood sampling and glycemia were measured by heated tail venous puncture.
Whole blood glucose levels were determined with an ACCU-CHEK® Avia blood glucose meter (Roche Diagnostics, Rotkreuz, Switzerland). Blood (approx 300 ul) is collected in 1 ml MiniCollect K3EDTA plasma-tube (Greiner-Bio-One GmbH, Frickenhausen, Germany), inverted, and stored on ice. Tubes are centrifuged 3000×g (5000 rpm in table centrifuge) for 10 min at 4° C. and plasma obtained. Plasma samples are stored at −20° C. until analysis. […]

Assay [2] is described as follows: Example 2: short-term oral treatment, body weight and food intake in DIO rats. The conditions noted are these: for food intake: 0.5, 1 and 2 mg/kg p.o. b.i.d. for 3 days; for body weight: 0.5, 1 and 2 mg/kg p.o. b.i.d. for 3 days with 150 mg/kg 5-CNAC. On the procedure: as §1, with “diet for 12 weeks prior” for “diet for 16 weeks prior”, “stress-induced hyperglycaemia. On the day prior to study start animals were given a single dose of vehicle. Baseline parameters” for “stress-induced hyperglycaemia. Baseline parameters”, “in an overnight fasting (16” for “in an fasting (6”, “overnight fasting (16 h) condition.” for “an fasting (6 h) condition.”, “were recorded prior to and at study end.” for “were recorded once weekly during the study period.”, “at study end.” for “the study period.”
Animals treated with oral sCT or oral calcitonin mimetic 1 received doses of 0.5 mg/kg, 1.0 mg/kg or 2.0 mg/kg combined with 150 mg/kg 5-CNAC—all dissolved in milliQ H20.
(§2) Drug administration were given by per oral (p.o.) gavage b.i.d. during the study period and as single dose in the morning prior to start of OGTT.
Following the initial (1st) OGTT, animals are randomized into treatment groups based on FBG and BW. Animals will be pre-treated 3 days (b.i.d.) prior to 2nd OGTT. Dosing will be performed in the morning (7-8 am) and afternoon (3-4 pm).
The study was performed in an x-over design with each animal being its own control.
Three different doses of oral sCT/calcitonin mimetic 1 containing 0.5, 1 and 2 mg/kg compound were applied by gavage twice daily to 4 groups of rats for 3 days. * P<0.05, ** P<0.01 vs oral sCT.

Assay [3] is described as follows: Example 3: short-term oral treatment, body weight and food intake in DIO rats. On the procedure:
as §1, with “diet for 12 weeks prior” for “diet for 16 weeks prior”, “reduce stress-induced hyperglycemia. On the day prior to study start animals were given a single dose of vehicle. Baseline parameters” for “reduce stress-induced hyperglycaemia. Baseline parameters”, “in an overnight fasting (16” for “in an fasting (6”, “overnight fasting (16 h) condition.” for “an fasting (6 h) condition.”, “were recorded prior to and at study end.” for “were recorded once weekly during the study period.”, “at study end.” for “the study period.”
Animals treated with oral sCT or oral UGP284/UGP298/UGP302 received doses of 0.5 mg/kg, 1.0 mg/kg or 2.0 mg/kg combined with 150 mg/kg 5-CNAC—all dissolved in milliQ H2O.
as §2
Following the initial (1st) OGTT, animals were randomized into treatment groups based on FBG and BW. Animals were pre-treated 3 days (b.i.d.) prior to 2nd OGTT. The study was performed in an x-over design with each animal being its own control.
(§3) Statistical analysis was performed by one-way ANOVA followed by the Dunnett's post hoc test for multiple comparison. Student's t-test was performed to compare two paired group. All analysis was performed using GRAPHPAD PRISM software (GraphPad Prism, San Diego, Calif. U.S.A). Incremental area under curve (iAUC) during OGTT was calculated by the trapezoidal method. A value of P<0.05 was considered to be significant. All data are presented as mean±standard error of the mean (SEM).
FIG. 9A, FIG. 9B, FIG. 9C, FIG. 9D, FIG. 9E, and FIG. 9F show the effect of three different doses of oral sCT/UGP284/UGP298/UGP302 containing 0.5, 1 and 2 mg/kg compound were applied by gavage twice daily to 4 groups of rats for 3 days. * P<0.05, ** P<0.01 vs oral sCT. Results are presented as means±SEM.

A short description of assay [4]: Example 1: chronic oral treatment, body weight and food intake in DIO rats. The conditions noted are these: for body weight: 4 weeks, vs oral vehicle (mimetic also vs oral sCT); for body weight / cumulative food intake: study end; for body weight / food intake: 1 mg/kg p.o. b.i.d. with 150 mg/kg 5-CNAC; for food intake: first week of treatment; for food intake / cumulative food intake: vs oral vehicle; for cumulative food intake: four weeks of treatment, 1 mg/kg p.o. b.i.d. On the procedure:
as §1
Oral sCT or calcitonin mimetic 1 solution was prepared on the day of dosing by mixing a carrier with the given compound based on the following calculations:
Animals treated with oral sCT or oral calcitonin mimetic 1 received doses of 1.0 mg/kg combined with 150 mg/kg 5-CNAC—all dissolved in milliQ H20.
Drug administration by per oral (p.o.) gavage b.i.d. (7-8 am and 3-4 pm) during the study period and as single dose in the morning prior to start of OGTT.
as §3
One dose of oral sCT/calcitonin mimetic 1 containing 1 mg/kg compound was applied by gavage twice daily to four groups of rats for 4 weeks. An oral vehicle group served as dosing regimen control, respectively. * P<0.05, ** P<0.01, *** P<0.001 vs Vehicle. Results are presented as means±SEM.

Bridge positions count the residues as written; N and C are the ends. Ends that are not written are not given here.

For “Ac-CSNLSTCVLGKLSQELHKLQTYPRTDVGANAP-NH2 (Ac-CSNLSTCVLGKLSQELHKLQTYPRTDVGANAP-NH2; ends and bridges not checked) [UGP302, calcitonin mimetic]”, the fasting glycaemia result in assay [1] is on record as “trend towards superiority in fasting glycaemia”. In addition, in assay [2] (0.5 mg/kg p.o. b.i.d. for 3 days), the “reduction in body weight vs oral sCT at same dose” value was “significantly difference to oral sCT 0.5 mg/kg”. Besides, in assay [2], the food intake result was “trended dose-dependently reduced compared to oral sCT” and the body weight result is given as “dose-dependent superiority to oral sCT”. In addition, the “reduction in body weight vs oral sCT at same dose” value in assay [3] (0.5 mg/kg p.o. b.i.d. for 3 days, DIO rats) is “significantly difference to oral sCT 0.5 mg/kg”. Further, the “energy balance vs equivalent doses of oral sCT” value in assay [3] (0.5, 1 and 2 mg/kg doses p.o., male DIO rats) is given as “superiority to equivalent doses of oral sCT”. Moreover, in assay [4], the body weight entry is on record as “more pronounced significant reduction in body weight”, the food intake result was “significantly reduced food intake” and the cumulative food intake entry was “significantly reduced”.

Consider “salmon calcitonin (CSNLSTCVLGKLSQELHKLQTYPRTNTGSGTP-NH2; disulfide 1-7; ends not checked) [sCT, reference compound]”, for which the fasting glycaemia entry in assay [1] is “not significantly different from oral vehicle”. In addition, the food intake entry is on record as “dose-dependently decreased” in assay [2]; “dose-dependently decreased” in assay [3] (0.5, 1 and 2 mg/kg p.o. b.i.d. for 3 days, DIO rats); “significantly reduced food intake” in assay [4]. For the same substance, the body weight entry in assay [2] is “dose-dependently decreased”; in assay [3] (0.5, 1 and 2 mg/kg p.o. b.i.d. for 3 days with 150 mg/kg 5-CNAC, DIO rats), “dose-dependently decreased”; in assay [4], “significantly reduced body weight from baseline”. Also, the cumulative food intake entry in assay [4] is reported as “lack of difference”.
